This note sets out measurements from paper PMC5936713, “Structural and functional studies of Spr1654: an essential aminotransferase in teichoic acid biosynthesis in Streptococcus pneumoniae” (Open Biology, 2018).

The target in experiment [1] is Spr1654 aminotransferase from Streptococcus pneumoniae, full length with C-terminal poly-histidine (Streptococcus pneumoniae) (UniProt Q8DNL6). In words: SEC; Superdex200 Increase 10/300 GL gel filtration, 20 mM Tris-HCl pH 7.5, 200 mM NaCl, 4°C; oligomeric state from the elution profile. Background: SEC sorts molecules by how far they enter the pores of the column.
Experiment [2] deals with T1, Spr1654 (Streptococcus pneumoniae, UniProt A0A0H2URM1).
T1 construct: gene SP_1837; full-length, C-terminal His6 tag (pET-23b), expressed in E. coli T7 Express; homodimer; residues Tyr4-Thr404 seen in crystals
In words: X-ray crystal structure, […] Å. It is filed as binding. The following applies: PMP formed by adding L-glutamate to the PLP complex before crystallization; active site.

The target in experiment [3] is T1, Spr1654. In words: X-ray crystal structure, […] Å; absorption spectroscopy ([…] nm). The following applies: covalent; internal aldimine with Lys199; 1 mM PLP preincubated, pH 7.5. In kind it is binding.
The target of experiment [4] is T1, Spr1654. Kind of experiment: transamination half-reaction, PLP ([…] nm) to PMP ([…] nm) absorbance. In kind it is biochemical. The following applies: 0.5 mM L-glutamate, Spr1654/PLP 0.9 mg/ml, 50 mM MES pH 6.6, 200 mM NaCl, 25 °C; amino donor.

As for “Spr1654 aminotransferase from Streptococcus pneumoniae, full length with C-terminal poly-histidine (from UniProt Q8DNL6 1-417) (enzyme)”, the stoichiometry N (commonly the number of molecules, sites or subunits per partner or assembly) in experiment [1] is 2.

Regarding `Cc1ncc(COP(=O)(O)O)c(CN)c1O` [PMP], at Spr1654 [2], the “X-ray crystal structure, 2.4 Å” value was “In the crystal structure of the Spr1654/PMP complex, the phosphate group serves as the main anchor”.

Take `Cc1ncc(COP(=O)(O)O)c(C=O)c1O` [PLP]: on Spr1654 [3], the “X-ray crystal structure, 2.2 Å; absorption spectroscopy (420 nm)” value is “Clear electron density confirms the formation of a covalent bond between PLP and residue Lys199”.

Turning to `N[C@@H](CCC(=O)O)C(=O)O` [E, L-glutamate], on Spr1654 [4], the “transamination half-reaction, PLP (420 nm) to PMP (330 nm) absorbance” value is “Spr1654 is able to deaminate L-glutamate in the first half-reaction of transamination with high efficiency”.
